# Key:
# PC-12 cells = test: Cell viability within polyalditol-acrylate redox components (Live/Dead Viability/Cytotoxicity Kit); conditions: 15 min
# Protocol: Cell suspensions were prepared as follows: PC-12 cells (ATCC; passage 5; 75% confluency) were harvested from a T-75 flask using Trypsin-EDTA for 2 minutes. The cells were placed in a 15 mL polyethylene conical (VWR) and centrifuged in F-12k media without serum for 4 minutes at 500 rpm. The cells were counted using a hemocytometer, centrifuged for 4 minutes at 500 rpm, and resuspended at 600,000 cells/mL in sterile PBS.
# In order to determine the effect of individual components of the matrix forming compositions on cell viability, solutions A-G were independently mixed with PC-12 cells. 50 uL of cell suspension was added to 350 uL of solutions A-G (Table 7). After a 15 minute incubation, cell viability was assessed using a Live/Dead™ Viability/Cytotoxicity Kit (cat.# L3224; Molecular Probes, Eugene, Oreg.).
# The effect of a formed matrix on cell viability was also tested. To form the PD-A matrix, solution #1 (200 mg PD-A, 10 uL TEMED, 20 uL 1N HCl, 470 uL PBS) was added in the amount of 200 uL to a 1.6 ml eppendorf (VWR). Solution #2 (400 mg PD-A, 10 mg Potassium persulfate, 75K PC-12 cells, 500 uL PBS) was added in the amount of 200 uL to solution #1 in the eppendorf and mixed for 10 seconds. After a 15 minute incubation, cell viability was assessed using the Live/Dead™ Viability/Cytotoxicity Kit.
smiles,measurement,setting,value
O=C(O)/C=C\C(=O)NCCCCCC(=O)O,melting point,,160 to 165 °C
N.N.O=S(=O)(O)OOS(=O)(=O)O [Ammonium persulfate],Cell viability (%),PC-12 cells; 10 mg/ml in PBS,90%
same,Cell viability (%),PC-12 cells; 120 mg/ml in PBS,90%
O=S(=O)([O-])OOS(=O)(=O)[O-].[K+].[K+] [Potassium persulfate],Cell viability (%),PC-12 cells; 10 mg/ml in PBS,90%
O=S(=O)([O-])OOS(=O)(=O)[O-].[Na+].[Na+] [Sodium persulfate],Cell viability (%),PC-12 cells; 5 mg/ml in PBS,90%

# — US20070071792A1, “In VIVO formed matrices including natural biodegradale polysaccharides and ophthalmic uses thereof” (priority 2005, published 2007)
